Experimental data published in patent US20230310428A1, “EGFR INHIBITOR AND PREPARATION METHOD AND USE THEREOF” (HONGYUN BIOTECH CO., LTD., priority 2020, published 2023).
pIC50: −log10 of the molar value.

Key:
Assay in all cases: Growth inhibitory activity of compounds on BaF3 cell lines stably transfected with kinase (MTS, 48 h)
Type in all cases: cell-based
[1] = target: T1, various mutants of kinase EGFR (BaF3 cell lines stably transfected with kinase) (Homo sapiens, UniProt P00533, T790M, form not given); conditions: BaF3 cell line stably transfected with EGFR Δ19Del/T790M, read-out: Δ19Del/ T790M growth inhibitory activity IC50
T1 construct: other: BaF3 cells stably transfected with EGFR Δ19Del/T790M; MTS, 48 h; other: BaF3 cell line stably transfected with EGFR Δ19Del/T790M; MTS, 48
Outline: (§1)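 Transfected cells received compound (max 10 µM, 8 concentrations) for 48 h; MTS readout at 490 nm yielded IC50.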

[2] = target: T2, various mutants of kinase EGFR (BaF3 cell lines stably transfected with kinase) (Homo sapiens, UniProt P00533, L858R); conditions: BaF3 cell line stably transfected with EGFR L858R, read-out: L858R growth inhibitory activity IC50
T2 construct: expressed in transfected cells; host or cells: BaF3
Outline: as §1

[3] = target: T3, various mutants of kinase EGFR (BaF3 cell lines stably transfected with kinase) (Homo sapiens, UniProt P00533, C797S/L858R/T790M); conditions: BaF3 cell line stably transfected with EGFR L858R/T790M/C797S, read-out: L858R/T790M/ C797S growth inhibitory activity IC50
T3 construct: expressed in transfected cells; host or cells: BaF3
Outline: as §1

[4] = target: T4, various mutants of kinase EGFR (BaF3 cell lines stably transfected with kinase) (Homo sapiens, UniProt P00533, L858R/T790M); conditions: BaF3 cell line stably transfected with EGFR L858R/T790M, read-out: L858R/ T790M growth inhibitory activity IC50
T4 construct: expressed in transfected cells; host or cells: BaF3
Outline: as §1

[5] = target: T5, various mutants of kinase EGFR (BaF3 cell lines stably transfected with kinase) (Homo sapiens, UniProt P00533, T790M/C797S, form not given); conditions: BaF3 cell line stably transfected with EGFR Δ19Del/T790M/C797S, read-out: Δ19Del/T790M/ C797S growth inhibitory activity IC50
T5 construct: other: BaF3 cells stably transfected with EGFR Δ19Del/T790M/C797S; MTS, 48; other: BaF3 cell line stably transfected with EGFR Δ19Del/T790M/C7
Outline: as §1

[6] = target: T6, various mutants of kinase EGFR (BaF3 cell lines stably transfected with kinase) (Homo sapiens, UniProt P00533); conditions: BaF3 cell line stably transfected with EGFR Δ19Del, read-out: Δ19Del growth inhibitory activity IC50
T6 construct: other: BaF3 cells stably transfected with EGFR Δ19Del; MTS, 48 h; other: BaF3 cell line stably transfected with EGFR Δ19Del
Outline: as §1

T1 sequence (P00533 with tags, fused parts or gaps DEL746-750/T790M, form open): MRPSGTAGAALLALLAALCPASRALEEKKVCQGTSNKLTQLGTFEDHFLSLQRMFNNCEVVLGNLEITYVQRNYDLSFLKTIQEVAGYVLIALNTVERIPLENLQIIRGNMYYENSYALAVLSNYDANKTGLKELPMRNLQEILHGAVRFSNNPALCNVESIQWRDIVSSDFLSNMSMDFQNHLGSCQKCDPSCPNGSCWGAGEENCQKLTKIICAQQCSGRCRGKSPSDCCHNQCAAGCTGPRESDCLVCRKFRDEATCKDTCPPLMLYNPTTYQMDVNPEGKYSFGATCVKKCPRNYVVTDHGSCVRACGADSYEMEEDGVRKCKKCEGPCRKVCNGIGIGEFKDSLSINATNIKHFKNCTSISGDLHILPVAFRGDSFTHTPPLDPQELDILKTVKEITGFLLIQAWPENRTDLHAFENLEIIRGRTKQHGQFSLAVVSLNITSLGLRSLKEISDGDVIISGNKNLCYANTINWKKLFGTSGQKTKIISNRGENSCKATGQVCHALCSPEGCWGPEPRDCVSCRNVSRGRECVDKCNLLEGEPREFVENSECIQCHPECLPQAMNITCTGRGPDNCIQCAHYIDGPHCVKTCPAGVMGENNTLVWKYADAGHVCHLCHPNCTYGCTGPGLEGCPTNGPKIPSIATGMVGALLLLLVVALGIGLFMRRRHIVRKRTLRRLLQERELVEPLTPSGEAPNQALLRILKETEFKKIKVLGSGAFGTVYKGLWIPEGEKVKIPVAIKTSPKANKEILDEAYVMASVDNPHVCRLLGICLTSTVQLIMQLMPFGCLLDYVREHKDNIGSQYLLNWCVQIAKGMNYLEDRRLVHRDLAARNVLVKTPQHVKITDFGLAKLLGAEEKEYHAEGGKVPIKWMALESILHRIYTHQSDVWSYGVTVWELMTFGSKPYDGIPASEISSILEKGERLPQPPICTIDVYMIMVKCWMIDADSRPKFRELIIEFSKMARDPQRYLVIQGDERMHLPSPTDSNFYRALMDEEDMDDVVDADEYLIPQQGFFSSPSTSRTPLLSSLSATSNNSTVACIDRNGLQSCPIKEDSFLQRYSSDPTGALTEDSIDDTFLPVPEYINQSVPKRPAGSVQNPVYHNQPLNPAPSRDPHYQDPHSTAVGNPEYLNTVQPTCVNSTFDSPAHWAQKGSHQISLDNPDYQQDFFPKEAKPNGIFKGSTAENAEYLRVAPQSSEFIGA
T5 sequence (P00533 with tags, fused parts or gaps DEL746-750/T790M/C797S, form open): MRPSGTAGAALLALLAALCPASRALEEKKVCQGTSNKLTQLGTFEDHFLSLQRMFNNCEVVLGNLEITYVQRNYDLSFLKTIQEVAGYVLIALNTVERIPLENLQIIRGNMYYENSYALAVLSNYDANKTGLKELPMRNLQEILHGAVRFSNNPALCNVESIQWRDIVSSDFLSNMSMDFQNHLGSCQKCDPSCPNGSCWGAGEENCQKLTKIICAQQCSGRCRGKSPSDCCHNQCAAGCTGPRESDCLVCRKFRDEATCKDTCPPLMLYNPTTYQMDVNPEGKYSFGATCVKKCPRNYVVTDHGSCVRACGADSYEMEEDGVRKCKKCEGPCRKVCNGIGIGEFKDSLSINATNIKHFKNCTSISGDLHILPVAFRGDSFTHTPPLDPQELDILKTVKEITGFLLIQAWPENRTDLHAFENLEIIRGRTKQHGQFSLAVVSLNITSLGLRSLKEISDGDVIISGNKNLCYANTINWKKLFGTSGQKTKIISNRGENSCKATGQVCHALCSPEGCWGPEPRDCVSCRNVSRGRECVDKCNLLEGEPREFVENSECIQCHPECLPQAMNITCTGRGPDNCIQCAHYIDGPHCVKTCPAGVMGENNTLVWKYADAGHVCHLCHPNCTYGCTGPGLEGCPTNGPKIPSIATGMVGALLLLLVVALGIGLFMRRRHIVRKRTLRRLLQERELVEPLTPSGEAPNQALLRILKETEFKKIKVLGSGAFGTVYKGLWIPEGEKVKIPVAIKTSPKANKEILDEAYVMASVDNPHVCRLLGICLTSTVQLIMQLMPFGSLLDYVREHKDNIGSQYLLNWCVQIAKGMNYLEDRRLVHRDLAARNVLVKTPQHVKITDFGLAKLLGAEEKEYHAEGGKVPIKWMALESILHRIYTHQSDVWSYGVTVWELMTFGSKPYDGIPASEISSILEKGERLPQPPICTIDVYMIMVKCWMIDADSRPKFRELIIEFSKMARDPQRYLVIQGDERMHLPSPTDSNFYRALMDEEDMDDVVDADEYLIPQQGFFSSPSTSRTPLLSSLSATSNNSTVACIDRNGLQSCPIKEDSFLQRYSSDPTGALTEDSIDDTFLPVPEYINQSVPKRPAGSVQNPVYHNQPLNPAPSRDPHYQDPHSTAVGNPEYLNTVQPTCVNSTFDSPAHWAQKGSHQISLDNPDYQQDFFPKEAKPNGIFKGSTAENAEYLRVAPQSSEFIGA
T4 sequence (P00533 25-1210 T790M/L858R): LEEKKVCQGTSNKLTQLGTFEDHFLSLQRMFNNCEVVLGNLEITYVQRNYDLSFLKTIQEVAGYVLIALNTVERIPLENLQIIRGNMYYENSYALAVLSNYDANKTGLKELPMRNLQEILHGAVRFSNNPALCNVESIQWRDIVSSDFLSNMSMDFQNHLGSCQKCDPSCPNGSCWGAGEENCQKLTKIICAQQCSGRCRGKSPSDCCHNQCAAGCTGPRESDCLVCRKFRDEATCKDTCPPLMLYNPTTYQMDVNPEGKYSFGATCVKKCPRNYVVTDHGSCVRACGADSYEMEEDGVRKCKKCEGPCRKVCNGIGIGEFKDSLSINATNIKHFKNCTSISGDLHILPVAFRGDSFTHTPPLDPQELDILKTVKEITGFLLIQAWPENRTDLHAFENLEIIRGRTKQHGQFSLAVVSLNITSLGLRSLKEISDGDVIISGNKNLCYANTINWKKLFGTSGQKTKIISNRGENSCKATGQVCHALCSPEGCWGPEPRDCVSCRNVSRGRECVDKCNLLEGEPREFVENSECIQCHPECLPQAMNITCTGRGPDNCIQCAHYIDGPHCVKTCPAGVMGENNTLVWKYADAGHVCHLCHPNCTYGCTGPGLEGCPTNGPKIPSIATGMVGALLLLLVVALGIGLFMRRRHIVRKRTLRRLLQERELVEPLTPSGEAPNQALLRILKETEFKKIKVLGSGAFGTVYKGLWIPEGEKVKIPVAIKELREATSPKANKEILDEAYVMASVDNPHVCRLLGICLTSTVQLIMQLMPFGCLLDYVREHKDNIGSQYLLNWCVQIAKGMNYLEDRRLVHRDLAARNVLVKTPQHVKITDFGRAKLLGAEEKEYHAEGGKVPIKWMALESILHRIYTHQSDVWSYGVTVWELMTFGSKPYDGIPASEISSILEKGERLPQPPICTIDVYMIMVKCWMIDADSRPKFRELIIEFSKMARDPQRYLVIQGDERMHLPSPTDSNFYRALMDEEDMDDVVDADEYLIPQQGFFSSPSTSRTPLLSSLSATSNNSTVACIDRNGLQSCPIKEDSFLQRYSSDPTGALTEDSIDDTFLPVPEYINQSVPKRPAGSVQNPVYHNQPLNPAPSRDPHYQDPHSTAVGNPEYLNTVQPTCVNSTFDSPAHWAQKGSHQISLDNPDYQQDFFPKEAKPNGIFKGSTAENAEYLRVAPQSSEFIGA
T3 sequence (P00533 25-1210 T790M/C797S/L858R): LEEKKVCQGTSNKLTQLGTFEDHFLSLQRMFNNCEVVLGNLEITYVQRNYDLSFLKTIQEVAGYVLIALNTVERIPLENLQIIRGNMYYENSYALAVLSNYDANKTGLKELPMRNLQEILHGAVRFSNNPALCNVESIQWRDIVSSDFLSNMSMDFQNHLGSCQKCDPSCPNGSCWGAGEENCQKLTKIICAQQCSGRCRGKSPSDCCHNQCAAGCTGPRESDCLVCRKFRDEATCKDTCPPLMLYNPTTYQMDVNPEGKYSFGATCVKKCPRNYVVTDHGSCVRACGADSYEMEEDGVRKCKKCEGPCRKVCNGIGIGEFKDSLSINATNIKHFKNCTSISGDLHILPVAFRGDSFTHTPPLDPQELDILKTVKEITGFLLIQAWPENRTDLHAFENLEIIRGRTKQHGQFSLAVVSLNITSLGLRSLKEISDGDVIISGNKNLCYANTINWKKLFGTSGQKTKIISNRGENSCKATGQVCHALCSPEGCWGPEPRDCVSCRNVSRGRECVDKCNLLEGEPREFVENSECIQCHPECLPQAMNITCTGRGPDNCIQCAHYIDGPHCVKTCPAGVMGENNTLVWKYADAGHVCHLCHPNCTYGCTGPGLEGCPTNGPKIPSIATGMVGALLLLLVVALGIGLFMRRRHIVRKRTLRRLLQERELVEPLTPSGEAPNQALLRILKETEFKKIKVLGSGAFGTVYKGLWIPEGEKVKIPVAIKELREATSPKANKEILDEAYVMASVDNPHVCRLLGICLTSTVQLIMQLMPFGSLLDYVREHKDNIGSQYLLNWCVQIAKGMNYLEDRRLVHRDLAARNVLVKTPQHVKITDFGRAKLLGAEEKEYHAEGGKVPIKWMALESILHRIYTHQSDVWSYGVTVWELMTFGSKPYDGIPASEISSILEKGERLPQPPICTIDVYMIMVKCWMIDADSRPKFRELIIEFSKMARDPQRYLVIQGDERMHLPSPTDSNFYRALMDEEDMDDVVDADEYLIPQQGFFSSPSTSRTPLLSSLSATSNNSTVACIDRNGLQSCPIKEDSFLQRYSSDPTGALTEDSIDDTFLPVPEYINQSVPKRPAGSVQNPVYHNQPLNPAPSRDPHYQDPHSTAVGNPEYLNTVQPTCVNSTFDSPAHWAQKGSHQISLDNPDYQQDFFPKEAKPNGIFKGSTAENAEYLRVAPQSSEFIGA

Compound	pIC50 [1]	pIC50 [2]	pIC50 [3]	pIC50 [4]	pIC50 [5]	pIC50 [6]
CCc1cnc(Nc2cc(F)c(N3CCC(N4CCN(C)CC4)CC3)c(F)c2)nc1Nc1ccc2nccnc2c1N(C)S(C)(=O)=O [Compound I-349]	≥ 7.30	≥ 7.30	≥ 7.30	≥ 7.30	≥ 7.30	6.30 to 7.30
CCc1cc(Nc2ncc(CC)c(Nc3ccc4nccnc4c3N(C)S(C)(=O)=O)n2)c(OC)cc1C(=O)N1CCC(N2CCN(C)CC2)CC1 [Compound I-350]	6.30 to 7.30	6.30 to 7.30	6.30 to 7.30	6.30 to 7.30	6.30 to 7.30	6.30 to 7.30
COc1ccc(N2CCC(C#N)CC2)cc1Nc1ncc(Br)c(Nc2ccc3nccnc3c2N(C)S(C)(=O)=O)n1 [Compound I-351]	6.30 to 7.30	6.30 to 7.30	6.30 to 7.30	≥ 7.30	6.30 to 7.30	6.30 to 7.30
CN1CCN(C2CCN(c3ccc(Nc4ncc(Br)c(Nc5ccc6nccnc6c5N(C)S(C)(=O)=O)n4)c(F)c3F)CC2)CC1 [Compound I-353]	≥ 7.30	≥ 7.30	≥ 7.30	≥ 7.30	≥ 7.30	6.30 to 7.30
CCc1cc(Nc2ncc(Br)c(Nc3ccc4nccnc4c3N(C)S(C)(=O)=O)n2)c(OC)cc1C(=O)N1CCC(N2CCN(C)CC2)CC1 [Compound I-355]	6.30 to 7.30	6.30 to 7.30	6.30 to 7.30	6.30 to 7.30	≥ 7.30	6.30 to 7.30
CN1CCN(C2CCN(c3ccc(Nc4ncc(Cl)c(Nc5ccc6nccnc6c5N(C)S(C)(=O)=O)n4)c(F)c3F)CC2)CC1 [Compound I-356]	6.30 to 7.30	≥ 7.30	6.30 to 7.30	≥ 7.30	≥ 7.30	6.30 to 7.30
CCc1cc(Nc2ncc(Cl)c(Nc3ccc4nccnc4c3N(C)S(C)(=O)=O)n2)c(OC)cc1C(=O)N1CCC(N2CCN(C)CC2)CC1 [Compound I-358]	6.30 to 7.30	6.30 to 7.30	6.30 to 7.30	6.30 to 7.30	6.30 to 7.30	5.60 to 6.30
CN1CCN(C2CCN(c3ccc(Nc4ncc(Br)c(Nc5ccc6nccnc6c5NS(C)(=O)=O)n4)c(F)c3F)CC2)CC1 [Compound I-359]	≥ 7.30	≥ 7.30	≥ 7.30	≥ 7.30	≥ 7.30	≥ 7.30
CN1CCN(C2CCN(c3c(F)cc(Nc4ncc(Br)c(Nc5ccc6nccnc6c5NS(C)(=O)=O)n4)cc3F)CC2)CC1 [Compound I-360]	6.30 to 7.30	≥ 7.30	6.30 to 7.30	≥ 7.30	6.30 to 7.30	6.30 to 7.30

Now from value to molecule:

pIC50 [1]	pIC50 [2]	pIC50 [3]	pIC50 [4]	pIC50 [5]	pIC50 [6]	Compound
5.60 to 6.30	6.30 to 7.30	6.30 to 7.30	6.30 to 7.30	6.30 to 7.30	5.60 to 6.30	CCc1cc(Nc2ncc(C3CC3)c(Nc3ccc4nccnc4c3N(C)S(C)(=O)=O)n2)c(OC)cc1C(=O)N1CCC(N2CCN(C)CC2)CC1 [Compound I-347]
≥ 7.30	6.30 to 7.30	6.30 to 7.30	6.30 to 7.30	6.30 to 7.30	6.30 to 7.30	CCc1cnc(Nc2ccc(N3CCC(N4CCN(C)CC4)CC3)c(F)c2F)nc1Nc1ccc2nccnc2c1N(C)S(C)(=O)=O [Compound I-348]
6.30 to 7.30	6.30 to 7.30	6.30 to 7.30	≥ 7.30	6.30 to 7.30	6.30 to 7.30	COc1ccc(N2CCNCC2)cc1Nc1ncc(Br)c(Nc2ccc3nccnc3c2N(C)S(C)(=O)=O)n1 [Compound I-352]
≥ 7.30	≥ 7.30	≥ 7.30	≥ 7.30	≥ 7.30	6.30 to 7.30	CN1CCN(C2CCN(c3c(F)cc(Nc4ncc(Br)c(Nc5ccc6nccnc6c5N(C)S(C)(=O)=O)n4)cc3F)CC2)CC1 [Compound I-354]
≥ 7.30	≥ 7.30	≥ 7.30	≥ 7.30	≥ 7.30	6.30 to 7.30	CN1CCN(C2CCN(c3c(F)cc(Nc4ncc(Cl)c(Nc5ccc6nccnc6c5N(C)S(C)(=O)=O)n4)cc3F)CC2)CC1 [Compound I-357]
